Experiments:
PPARα = molecular target: T1, PPARα (Homo sapiens, UniProt Q07869); assay: Hela cell/luciferase reporter gene method, PPARα agonist activity; type: cell-based; details: for EC50: Hela cells, pPPRE3-TK-Luciferase reporter, 24 hrs incubation, read-out: agonistic activity on PPAα (EC50)
T1 construct: expressed in transfected cells; host or cells: Hela cells
T1 sequence (Q07869 1-468): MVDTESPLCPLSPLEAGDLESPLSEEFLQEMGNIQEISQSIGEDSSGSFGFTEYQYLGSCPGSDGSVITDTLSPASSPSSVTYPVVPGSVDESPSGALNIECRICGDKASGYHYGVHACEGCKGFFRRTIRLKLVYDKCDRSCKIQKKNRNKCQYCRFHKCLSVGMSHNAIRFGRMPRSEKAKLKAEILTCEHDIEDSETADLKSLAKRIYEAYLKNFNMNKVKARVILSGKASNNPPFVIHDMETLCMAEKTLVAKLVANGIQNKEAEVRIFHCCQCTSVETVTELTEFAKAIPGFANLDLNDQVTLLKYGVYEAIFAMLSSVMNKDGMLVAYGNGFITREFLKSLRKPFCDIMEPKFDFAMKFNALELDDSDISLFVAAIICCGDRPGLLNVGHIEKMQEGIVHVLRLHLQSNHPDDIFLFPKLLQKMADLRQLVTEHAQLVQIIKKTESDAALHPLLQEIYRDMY
How it was run: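 HeLa cells co-transfected with pPPRE3-TK-firefly luciferase and PPARα, δ or γ expression vector (reporter:receptor 6:1, 8:1, 2:1 respectively). Cells exposed 24 h at 37 °C in 1% FBS medium to 8-point 4-fold dilution series; luciferase luminescence read, EC50 derived.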

[1] = Pharmacokinetic (PK) experiments after intragastric administration in rats; type: in vivo, SD rats; details: for AUC(0-inf) / AUC(0-t) / Cmax / Tmax / half-life: male, SD, rat, plasma, po, intragastric administration 20 mg/kg; for half-life: read-out: Terminal T1/2 (converted)
Experimental: Male SD rats, weighing 250-300 grams, were fasted overnight before testing. The test compound was dissolved in 30% sulfobutyl-R-cyclodextrin (SBE-β-CD) and administered intragastrically at a dose of 20 mg/kg. Blood was collected 15 minutes, 30 minutes, and 1, 2, 3, 4, […] and 24 hours after the administration. About 0.3 ml of blood was collected at each time point, placed in a centrifuge tube containing K2-EDTA (dipotassium ethylenediamine tetraacetate) and centrifuged (2,000 g, 10 minutes, 4° C.) to take the plasma, which was stored in an ultra-low temperature refrigerator at −80° C. A 50 μL plasma sample was mixed with 5 μl of internal standard (IS) and extracted with ethyl acetate. The residue was redissolved in acetonitrile after drying under vacuum. The sample was filtered and injected into an LC-MS/MS for analysis.

EC50 (PPARα) [nM] | increased activity for activation of PPARα compared with Elafibranor (PPARα; compared with Elafibranor) [fold] | ratio of PPARγ/PPARα activated (EC50 ratio) (PPARα; under the experimental conditions of the present disclosure) | AUC(0-inf) [1] [ng·h/mL] | AUC(0-t) [1] [ng·h/mL] | Cmax [1] [ng/mL] | Tmax [1] [min] | half-life [1] [min] | absorption after oral administration compared with Elafibranor (in words) [1] | blood exposure after oral administration compared with Elafibranor (in words) [1] | half-life after oral administration compared with Elafibranor (in words) [1] | Structure (SMILES)
16.6 | 1 | 7.98 | 3150 | 3040 | 1830 | 15 | 532 | good absorption | highly effective blood exposure | significantly prolonged half-life | CSc1ccc2c(C)c(C(=O)/C=C/c3cc(C)c(OC(C)(C)C(=O)O)c(C)c3)oc2c1 [Compound 62, (E)-2-(2,6-dimethyl-4-(3-(3-methyl-6-(methylthio)benzofuran-2-yl)-3-oxoprop-1-en-1-yl)phenoxy)-2-methylpropanoic acid]
39.8 | – | – | 1580 | 1550 | 2780 | 15 | 410 | good absorption | highly effective blood exposure | significantly prolonged half-life | COc1ccc2cc(C(=O)/C=C/c3cc(C)c(OC(C)(C)C(=O)O)c(C)c3)oc2c1 [Compound 43, (E)-2-(4-(3-(6-methoxybenzofuran-2-yl)-3-oxoprop-1-en-1-yl)-2,6-dimethylphenoxy)-2-methylpropanoic acid]

— patent publication US11306102B2, “1,3-di-substituted ketene compound and application thereof” (BEBETTER MED INC., priority 2017, dated 2022)
